According to patent US9815839B2, “N-(1-(substituted-phenyl)ethyl)-9H-purin-6-amines as PI3K inhibitors” (Incyte Corporation, priority 2010, dated 2017):
Counter-ions that a name gives are not always drawn.

Each compound was assayed against T1, PI3Kδ (p110δ/p85α) (Homo sapiens, UniProt O00329) (assay: PI3Kδ scintillation proximity assay). Conditions: 20 μM ATP, 4 nM PI3Kδ.
T1 construct: purchased Millipore (Bedford, Mass.)
Assay type: biochemical
Outline: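 p110δ/p85α (4 nM) phosphorylated 20 μM PIP2 with 20 μM ATP plus [γ-33P]ATP in 20 mM MOPS pH 6.7, 10 mM MgCl2, 5 mM DTT, 0.03% CHAPS, 0.5% DMSO, 210 min at room temperature. EDTA quench, WGA SPA bead capture, scintillation counting; IC50 from log-concentration fit.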

T1 sequence (O00329 whole entry, species assumed): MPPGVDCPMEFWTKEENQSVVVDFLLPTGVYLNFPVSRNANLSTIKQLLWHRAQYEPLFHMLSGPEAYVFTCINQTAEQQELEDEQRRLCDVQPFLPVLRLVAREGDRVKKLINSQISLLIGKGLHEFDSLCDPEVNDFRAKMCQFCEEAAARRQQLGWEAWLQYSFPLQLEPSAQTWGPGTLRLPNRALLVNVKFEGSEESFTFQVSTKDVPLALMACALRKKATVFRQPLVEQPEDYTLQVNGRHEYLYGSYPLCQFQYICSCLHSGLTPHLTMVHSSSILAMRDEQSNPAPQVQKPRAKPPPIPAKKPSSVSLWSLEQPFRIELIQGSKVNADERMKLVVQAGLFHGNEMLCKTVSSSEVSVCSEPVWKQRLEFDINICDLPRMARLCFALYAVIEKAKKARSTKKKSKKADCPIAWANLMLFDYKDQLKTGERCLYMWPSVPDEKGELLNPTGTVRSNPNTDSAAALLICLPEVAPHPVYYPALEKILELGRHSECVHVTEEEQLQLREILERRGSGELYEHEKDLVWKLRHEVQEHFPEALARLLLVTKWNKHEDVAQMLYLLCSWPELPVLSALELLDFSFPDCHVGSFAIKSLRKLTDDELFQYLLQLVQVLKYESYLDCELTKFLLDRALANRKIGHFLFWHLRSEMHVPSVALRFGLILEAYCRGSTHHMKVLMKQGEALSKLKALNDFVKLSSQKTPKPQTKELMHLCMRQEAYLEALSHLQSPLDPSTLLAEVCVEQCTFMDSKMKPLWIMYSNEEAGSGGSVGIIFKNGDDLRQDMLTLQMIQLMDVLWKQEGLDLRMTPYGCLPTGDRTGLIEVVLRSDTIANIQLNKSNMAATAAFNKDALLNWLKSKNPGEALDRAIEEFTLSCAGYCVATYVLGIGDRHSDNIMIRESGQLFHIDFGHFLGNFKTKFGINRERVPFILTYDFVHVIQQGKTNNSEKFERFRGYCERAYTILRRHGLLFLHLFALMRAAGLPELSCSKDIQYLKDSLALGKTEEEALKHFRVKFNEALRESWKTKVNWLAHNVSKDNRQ
T1 sequence (P27986 whole entry partner, species assumed): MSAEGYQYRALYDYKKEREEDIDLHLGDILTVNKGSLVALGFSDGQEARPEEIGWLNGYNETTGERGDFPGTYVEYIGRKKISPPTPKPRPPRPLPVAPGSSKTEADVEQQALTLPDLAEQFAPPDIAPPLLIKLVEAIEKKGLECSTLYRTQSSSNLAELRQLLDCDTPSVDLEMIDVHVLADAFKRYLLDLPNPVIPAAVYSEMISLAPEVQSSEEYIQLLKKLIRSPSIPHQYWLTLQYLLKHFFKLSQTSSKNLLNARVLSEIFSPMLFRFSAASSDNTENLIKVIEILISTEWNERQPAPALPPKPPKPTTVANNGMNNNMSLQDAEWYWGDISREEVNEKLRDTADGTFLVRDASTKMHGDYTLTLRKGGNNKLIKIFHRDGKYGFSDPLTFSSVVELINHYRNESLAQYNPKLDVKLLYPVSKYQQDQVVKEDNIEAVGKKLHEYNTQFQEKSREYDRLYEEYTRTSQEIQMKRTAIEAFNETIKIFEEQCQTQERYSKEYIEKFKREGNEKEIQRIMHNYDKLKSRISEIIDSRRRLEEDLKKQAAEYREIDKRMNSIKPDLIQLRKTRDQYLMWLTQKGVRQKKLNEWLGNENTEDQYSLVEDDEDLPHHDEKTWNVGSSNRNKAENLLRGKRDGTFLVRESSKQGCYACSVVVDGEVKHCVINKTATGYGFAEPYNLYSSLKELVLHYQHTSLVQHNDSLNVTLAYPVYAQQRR

| IC50 [nM] | SMILES |
| --- | --- |
| < 50 | Cc1c(Cl)cc(C(C)Nc2ncnc3[nH]cnc23)c(-c2cc(F)cc(F)c2)c1-c1ccncc1 (centres unmarked) [Example 76, N-[1-(4-Chloro-3′,5′-difluoro-5-methyl-6-pyridin-4-ylbiphenyl-2-yl)ethyl]-9H-purin-6-amine bis(trifluoroacetate)] |
| < 50 | COc1c(-c2ccnc(F)c2)cc(Cl)cc1C(C)Nc1ncnc2[nH]cnc12 (centres unmarked) [Example 145, N-{1-[5-chloro-3-(2-fluoropyridin-4-yl)-2-methoxyphenyl]ethyl}-9H-purin-6-amine] |
| < 50 | CNC(=O)N1CC(c2c(C)c(Cl)cc(C(C)Nc3ncnc4[nH]cnc34)c2OC)C1 (centres unmarked) [Example 168, 3-{3-Chloro-6-methoxy-2-methyl-5-[1-(9H-purin-6-ylamino)ethyl]phenyl}-N-methylazetidine-1-carboxamide trifluoroacetate] |
| 250 to 500 | COc1c(-c2cc(F)nc(F)c2)cc(Cl)cc1C(C)Nc1ncnc2[nH]cnc12 (centres unmarked) [Example 141, N-{1-[5-chloro-3-(2,6-difluoropyridin-4-yl)-2-methoxyphenyl]ethyl}-9H-purin-6-amine] |
| < 50 | COc1c(C(C)Nc2ncnc3[nH]cnc23)cc(Cl)c(C)c1-c1cnc(N)nc1 (centres unmarked) [Example 115, N-{1-[3-(2-aminopyrimidin-5-yl)-5-chloro-2-methoxy-4-methylphenyl]ethyl}-9H-purin-6-amine] |
| < 50 | CCOc1c(C(C)Nc2ncnc3[nH]cnc23)cc(C#N)c(F)c1-c1ccc(C(=O)N(C)C)nc1 (centres unmarked) [Example 211, 5-{3-Cyano-6-ethoxy-2-fluoro-5-[1-(9H-purin-6-ylamino)ethyl]phenyl}-N,N-dimethylpyridine-2-carboxamide bis(trifluoroacetate)] |
| < 50 | COc1c(C(C)Nc2ncnc3[nH]cnc23)cc(Cl)c(C)c1-c1cccc(NC(C)=O)c1 (centres unmarked) [Example 104, N-{3′-chloro-6′-methoxy-2′-methyl-5′-[1-(9H-purin-6-ylamino)ethyl]biphenyl-3-yl}acetamide] |
| 50 to 100 | COc1c(-c2cncc(Cl)c2)cc(Cl)cc1C(C)Nc1ncnc2[nH]cnc12 (centres unmarked) [Example 125, N-{1-[5-Chloro-3-(5-chloropyridin-3-yl)-2-methoxyphenyl]ethyl}-9H-purin-6-amine] |

Each compound was assayed on Pfeiffer cell line (diffuse large B cell lymphoma) (assay: Pfeiffer cell proliferation assay). Conditions: Homo sapiens, Pfeiffer, Pfeiffer cells, 3-4 days plus 12 hours [3H]-thymidine incorporation.
Assay type: cell-based
Method: Example C: Pfeiffer Cell Proliferation Assay
Pfeiffer cell line (diffuse large B cell lymphoma) was purchased from ATCC (Manassas, Va.) and maintained in the culture medium recommended (RPMI and 10% FBS). To measure the anti-proliferation activity of the compounds, the Pfeiffer cells were plated with the culture medium (2×10^3 cells/well/per 200 μl) into 96-well ultra-low binding plates (Corning, Corning, N.Y.), in the presence or absence of a concentration range of test compounds. After 3-4 days, [^3H]-thymidine (1 μCi/well) (PerkinElmer, Boston, Mass.) in PBS was then added to the cell culture for an additional 12 hours before the incorporated radioactivity was separated by filtration with water through GF/B filters (Packard Bioscience, Meridenj, Conn.) and measured by liquid scintillation counting with a TopCount (Packard Bioscience).

| IC50 [nM] | SMILES |
| --- | --- |
| < 100 | Cc1c(Cl)cc(C(C)Nc2ncnc3[nH]cnc23)c(-c2cc(F)cc(F)c2)c1-c1ccncc1 (centres unmarked) [Example 76, N-[1-(4-Chloro-3′,5′-difluoro-5-methyl-6-pyridin-4-ylbiphenyl-2-yl)ethyl]-9H-purin-6-amine bis(trifluoroacetate)] |
| < 100 | COc1c(C(C)Nc2ncnc3[nH]cnc23)cc(Cl)c(C)c1-c1cnc(N)nc1 (centres unmarked) [Example 33, N-{1-[3-(2-aminopyrimidin-5-yl)-5-chloro-2-methoxy-4-methylphenyl]ethyl}-9H-purin-6-amine] |
| > 1000 | COc1c(C(C)Nc2ncnc3[nH]cnc23)cc(Cl)c(C)c1-c1cc(F)ccc1F (centres unmarked) [Example 50, N-[1-(5-chloro-2′,5′-difluoro-2-methoxy-6-methylbiphenyl-3-yl)ethyl]-9H-purin-6-amine] |
| 500 to 1000 | Cc1c(Cl)cc(C(C)Nc2ncnc3[nH]cnc23)c(-c2cccc(F)c2)c1C#N (centres unmarked) [Example 1, 4-Chloro-3′-fluoro-3-methyl-6-[1-(9H-purin-6-ylamino)ethyl]biphenyl-2-carbonitrile] |
| < 100 | COc1c(C(C)Nc2ncnc3[nH]cnc23)cc(Cl)c(C)c1-c1cncc(C#N)c1 (centres unmarked) [Example 53, 5-{3-chloro-6-methoxy-2-methyl-5-[1-(9H-purin-6-ylamino)ethyl]phenyl}nicotinonitrile] |
| < 100 | Cc1c(Cl)cc(C(C)Nc2ncnc3[nH]cnc23)c(-c2cccc(F)c2)c1-c1cnn(C)c1 (centres unmarked) [Example 73, N-{1-[4-chloro-3′-fluoro-5-methyl-6-(1-methyl-1H-pyrazol-4-yl)biphenyl-2-yl]ethyl}-9H-purin-6-amine] |
| < 100 | COc1c(C(C)Nc2ncnc3[nH]cnc23)cc(Cl)c(C)c1-c1ccc(S(C)(=O)=O)cc1 (centres unmarked) [Example 32, N-{1-[5-chloro-2-methoxy-6-methyl-4′-(methylsulfonyl)biphenyl-3-yl]ethyl}-9H-purin-6-amine] |
| > 1000 | COc1c(C(C)Nc2ncnc3[nH]cnc23)cc(Cl)c(C)c1-c1cc(C(F)(F)F)ccc1F (centres unmarked) [Example 86, N-{1-[5-chloro-2′-fluoro-2-methoxy-6-methyl-5′-(trifluoromethyl)biphenyl-3-yl]ethyl]-9H-purin-6-ami] |

Same assay, conditions: Pfeiffer cells, 3-4 days plus 12 hours [3H]-thymidine incorporation

| IC50 [nM] | SMILES |
| --- | --- |
| 500 to 1000 | COc1c(C(C)Nc2ncnc3[nH]cnc23)cc(Cl)c(C)c1-c1cc(F)ccc1F (centres unmarked) [Example 50, N-[1-(5-chloro-2′,5′-difluoro-2-methoxy-6-methylbiphenyl-3-yl)ethyl]-9H-purin-6-amine] |
